Experiments:
algae = experiment: Dosing of micro-mixed emulsion to cooling tower water, control of algae; details: isothiazolone 3 ppm in cooling water of a cooling tower; surfactant-free emulsion from micro-mixer
Method: A 50 wt. % solution of 4,5-dichloro-2-octyl-3-isothiazolone in benzyl alcohol is fed to an array of slit shaped interdigital micro-mixers at a feed rate of 50 mL/minute, combined with water fed to the micro-mixer at a feed rate of 600 mL/minute. The water contains no surfactants. The resulting emulsion exiting the micro-mixer it is directly dosed to cooling water in a 50,000 gallon […] cooling tower, where is effectively distributed and re-circulated throughout the cooling water. After about 20 minutes, the isothiazolone concentration in the cooling water reaches a desired concentration of 3 ppm and the emulsion feed is stopped. […] Focusing micro-mixers also produce similar results as compared to the micro-mixers described above. Melted 2-octyl-3-isothiazolone as a neat liquid is fed to an array of slit shaped interdigital micro-mixers at a feed rate of 50 mL/minute, combined with water fed to the micro-mixer at a feed rate of 600 mL/minute. The water contains no surfactants and solvents. The resulting emulsion exiting the micro-mixer it is directly dosed to cooling water in a 50,000 gallon […] cooling tower, where is effectively distributed and re-circulated throughout the cooling water. After about 20 minutes, the isothiazolone concentration in the cooling water reaches a desired concentration of 3 ppm and the emulsion feed is stopped. […]

mold = experiment: Dosing of micro-mixed emulsion to paper pulp slurry tank, mold proofing of paper; details: 50 wt. % solution in benzyl alcohol micro-mixed with water, charged to 10,000 liter pulp slurry tank
Method: A 10,000 liter pulp slurry tank has a continuous throughput averaging 6,600 liters/minute. A 50 wt. % solution of 4,5-dichloro-2-octyl-3-isothiazolone in benzyl alcohol is fed to an array of slit shaped interdigital micro-mixers at a feed rate of 56 mL/minute, combined with water fed to the micro-mixer at a feed rate of 600 mL/minute. The water contains no surfactants. The resulting emulsion exiting the micro-mixer is directly charged to water in the pulp slurry tank, where it is effectively distributed and re-circulated throughout the tank water. […] Focusing micro-mixers also produce similar results as compared to the micro-mixers described above.

CCCCCCCCn1sccc1=O [2-octyl-3-isothiazolone]
control of algae in cooling water (algae): Effective control of algae

CCCCCCCCn1sc(Cl)c(Cl)c1=O [4,5-dichloro-2-octyl-3-isothiazolone]
control of algae in cooling water (algae): Effective control of algae | mold proofing in paper prepared from treated pulp (mold): effective mold proofing

Reference: patent US20050042238A1, “Process for treating aqueous systems” (priority 2003, published 2005)
